Measured values reported in ChEMBL document CHEMBL1201862, “PubChem BioAssay data set” (2004).
Counter-ions that a name gives are not always drawn.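 Each compound was tested at five concentrations against cells in 96-well plates for 48 hours. GI50 = concentration required for 50% inhibition of growth.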 Active and inactive are the calls of the source. Cut-off read from the data, not from the text of the source: active = GI50 up to about 1.1 µM and inactive = higher.

Key:
Assay in all cases: NCI-60 cell line screen, 48 h
A549 = test system: A549
ACHN = test system: ACHN
M14 = test system: M14
IGROV-1 = test system: IGROV-1
U-251 = test system: U-251
OVCAR-8 = test system: OVCAR-8
HOP-62 = test system: HOP-62
HCC 2998 = test system: HCC 2998
TK-10 = test system: TK-10
SNB-19 = test system: SNB-19
HCT-116 = test system: HCT-116
MOLT-4 = test system: MOLT-4
UACC-62 = test system: UACC-62
SF-268 = test system: SF-268
XF498 = test system: XF498
HOP-18 = test system: HOP-18
SR = test system: SR
HOP-92 = test system: HOP-92
HT-29 = test system: HT-29
K562 = test system: K562
786-0 = test system: 786-0
SN12C = test system: SN12C
OVCAR-3 = test system: OVCAR-3
OVCAR-5 = test system: OVCAR-5
UACC-257 = test system: UACC-257
SW-620 = test system: SW-620
RXF 631 = test system: RXF 631
NCI-H460 = test system: NCI-H460
NCI-H23 = test system: NCI-H23
OVCAR-4 = test system: OVCAR-4
SNB-78 = test system: SNB-78
SF-295 = test system: SF-295
CCRF-CEM = test system: CCRF-CEM
SK-MEL-5 = test system: SK-MEL-5
SNB-75 = test system: SNB-75
SK-OV-3 = test system: SK-OV-3
DMS-114 = test system: DMS-114
LXFL 529 = test system: LXFL 529
DLD-1 = test system: DLD-1
HCT-15 = test system: HCT-15
HL-60 = test system: HL-60
UO-31 = test system: UO-31
COLO 205 = test system: COLO 205
DMS-273 = test system: DMS-273
LOX IMVI = test system: LOX IMVI
EKVX = test system: EKVX
SF-539 = test system: SF-539
KM12 = test system: KM12
A498 = test system: A498
KM-20L2 = test system: KM-20L2
RXF 393 = test system: RXF 393
M19-MEL = test system: M19-MEL
Malme-3M = test system: Malme-3M
SK-MEL-28 = test system: SK-MEL-28
CAKI-1 = test system: CAKI-1
SK-MEL-2 = test system: SK-MEL-2
RPMI-8226 = test system: RPMI-8226
NCI-H226 = test system: NCI-H226
NCI-H522 = test system: NCI-H522

Structure (SMILES): Cn1cc(NC(=O)c2cc(NC(=O)Nc3cc(C(=O)Nc4cc(C(=O)NCCC(=N)N)n(C)c4)n(C)c3)cn2C)cc1C(=O)NCCC(=N)N
- GI50 (A549): 29.4 µM (inactive)
- GI50 (ACHN): 25.2 µM (inactive)
- GI50 (M14): 20.4 µM (inactive)
- GI50 (IGROV-1): 24.5 µM (inactive)
- GI50 (U-251): 26.6 µM (inactive)
- GI50 (OVCAR-8): 22.8 µM (inactive)
- GI50 (HOP-62): 39.8 µM (inactive)
- GI50 (HCC 2998): 48.1 µM (inactive)
- GI50 (TK-10): 22.5 µM (inactive)
- GI50 (SNB-19): > 100 µM (inactive)
- GI50 (HCT-116): 37.2 µM (inactive)
- GI50 (MOLT-4): > 100 µM (inactive)
- GI50 (UACC-62): 16.9 µM (inactive)
- GI50 (SF-268): 36.4 µM (inactive)
- GI50 (XF498): 21 µM (inactive)
- GI50 (HOP-18): 71.4 µM (inactive)
- GI50 (SR): 44.2 µM (inactive)
- GI50 (HOP-92): 42.2 µM (inactive)
- GI50 (HT-29): > 100 µM (inactive)
- GI50 (K562): 51.8 µM (inactive)
- GI50 (786-0): 20.7 µM (inactive)
- GI50 (SN12C): 86.7 µM (inactive)
- GI50 (OVCAR-3): 41.1 µM (inactive)
- GI50 (OVCAR-5): > 100 µM (inactive)
- GI50 (UACC-257): 17.7 µM (inactive)
- GI50 (SW-620): > 100 µM (inactive)
- GI50 (RXF 631): 23.1 µM (inactive)
- GI50 (NCI-H460): 17.3 µM (inactive)
- GI50 (NCI-H23): 37.4 µM (inactive)
- GI50 (OVCAR-4): 38.7 µM (inactive)
- GI50 (SNB-78): 38.5 µM (inactive)
- GI50 (SF-295): 33.9 µM (inactive)
- GI50 (CCRF-CEM): 22 µM (inactive)
- GI50 (SK-MEL-5): 17.4 µM (inactive)
- GI50 (SNB-75): 40.5 µM (inactive)
- GI50 (SK-OV-3): > 100 µM (inactive)
- GI50 (DMS-114): 49.3 µM (inactive)
- GI50 (LXFL 529): 56.5 µM (inactive)
- GI50 (DLD-1): > 100 µM (inactive)
- GI50 (HCT-15): > 100 µM
- GI50 (HL-60): 60.7 µM (inactive)
- GI50 (UO-31): 33.1 µM (inactive)
- GI50 (COLO 205): 33 µM (inactive)
- GI50 (DMS-273): 13.6 µM (inactive)
- GI50 (LOX IMVI): 25.4 µM (inactive)
- GI50 (EKVX): 52.2 µM (inactive)
- GI50 (SF-539): 18 µM (inactive)
- GI50 (KM12): 17 µM (inactive)
- GI50 (A498): 25.1 µM (inactive)
- GI50 (KM-20L2): 60.5 µM (inactive)
- GI50 (RXF 393): 22.4 µM (inactive)
- GI50 (M19-MEL): 20.4 µM (inactive)
- GI50 (Malme-3M): 24.9 µM (inactive)
- GI50 (SK-MEL-28): 25.4 µM (inactive)
- GI50 (CAKI-1): 30.5 µM (inactive)

Structure (SMILES): COC(=O)C1=CO[C@@H](C)[C@@H]2Cn3ccc4c5ccccc5nc-4c3C[C@H]12 [ALSTONINE HYDROCHLORIDE]
- GI50 (A549): > 100 µM (inactive)
- GI50 (ACHN): > 100 µM (inactive)
- GI50 (M14): > 100 µM (inactive)
- GI50 (IGROV-1): > 100 µM (inactive)
- GI50 (SK-MEL-2): > 100 µM (inactive)
- GI50 (U-251): > 100 µM (inactive)
- GI50 (OVCAR-8): > 100 µM (inactive)
- GI50 (HOP-62): > 100 µM (inactive)
- GI50 (TK-10): > 100 µM (inactive)
- GI50 (SNB-19): > 100 µM (inactive)
- GI50 (HCT-116): > 100 µM (inactive)
- GI50 (MOLT-4): 90.6 µM (inactive)
- GI50 (UACC-62): > 100 µM (inactive)
- GI50 (RPMI-8226): 84.3 µM (inactive)
- GI50 (SF-268): > 100 µM (inactive)
- GI50 (XF498): 49.5 µM (inactive)
- GI50 (HOP-18): 32.7 µM (inactive)
- GI50 (HOP-92): 92.9 µM (inactive)
- GI50 (HT-29): > 100 µM (inactive)
- GI50 (K562): 55.2 µM (inactive)
- GI50 (786-0): > 100 µM (inactive)
- GI50 (SN12C): > 100 µM (inactive)
- GI50 (OVCAR-3): 87.1 µM (inactive)
- GI50 (OVCAR-5): > 100 µM (inactive)
- GI50 (UACC-257): > 100 µM (inactive)
- GI50 (SW-620): > 100 µM (inactive)
- GI50 (RXF 631): > 100 µM (inactive)
- GI50 (NCI-H460): > 100 µM (inactive)
- GI50 (NCI-H23): > 100 µM (inactive)
- GI50 (OVCAR-4): > 100 µM (inactive)
- GI50 (SNB-78): > 100 µM (inactive)
- GI50 (SF-295): > 100 µM (inactive)
- GI50 (CCRF-CEM): > 100 µM (inactive)
- GI50 (SK-MEL-5): 61.2 µM (inactive)
- GI50 (SNB-75): > 100 µM (inactive)
- GI50 (SK-OV-3): > 100 µM (inactive)
- GI50 (DMS-114): > 100 µM (inactive)
- GI50 (LXFL 529): > 100 µM (inactive)
- GI50 (DLD-1): > 100 µM (inactive)
- GI50 (HCT-15): > 100 µM
- GI50 (UO-31): > 100 µM (inactive)
- GI50 (COLO 205): > 100 µM (inactive)
- GI50 (DMS-273): > 100 µM (inactive)
- GI50 (NCI-H226): > 100 µM (inactive)
- GI50 (LOX IMVI): > 100 µM (inactive)
- GI50 (EKVX): > 100 µM (inactive)
- GI50 (SF-539): > 100 µM (inactive)
- GI50 (NCI-H522): 51.6 µM (inactive)
- GI50 (A498): > 100 µM (inactive)
- GI50 (KM-20L2): > 100 µM (inactive)
- GI50 (RXF 393): > 100 µM (inactive)
- GI50 (M19-MEL): > 100 µM (inactive)
- GI50 (Malme-3M): > 100 µM (inactive)
- GI50 (SK-MEL-28): > 100 µM (inactive)
